Assay [1] concerns KB. Kind of assay: Cytotoxicity against human KB cells by SRB assay. The format is functional, cell-based.
Assay [2] relates to HL-60. Kind of assay: Cytotoxicity against human HL60 cells by MTT assay. Type of assay: functional, cell-based. (Tetrazolium assays rely on reduction of a dye to a coloured formazan, in cell work by metabolically active cells.)
Assay [3] has as its system HT-29. Kind of assay: Cytotoxicity against human HT-29 cells by SRB assay. Type of assay: functional, cell-based. Background: The SRB assay estimates cell density from bound dye.
The test system of assay [4] is A549. In words: Cytotoxicity against human A549 cells by SRB assay. The format is functional, cell-based.
For assay [5], the system named is HT-29. In words: Cytotoxicity against human HT-29 cells assessed as inhibition of cell viability at 10 uM by SRB assay relative to control. Type of assay: functional.
Assay [6] deals with KB. Kind of assay: Cytotoxicity against human KB cells assessed as inhibition of cell viability at 10 uM by SRB assay relative to control. Type of assay: functional.
Assay [7] has as its system HL-60. In words: Cytotoxicity against human HL60 cells assessed as inhibition of cell viability at 10 uM by MTT assay relative to control. Type of assay: functional.
Assay [8] concerns A549. Kind of assay: Cytotoxicity against human A549 cells assessed as inhibition of cell viability at 10 uM by SRB assay relative to control. Type of assay: functional.

Structures are written as SMILES. Structures can show the parent of a compound that is named as a salt.

What is called IC50 is the concentration needed to halve the response being measured. Low values mean greater potency in that assay, high ones weaker potency in that assay. In the case of `COc1cccc2c1C(=O)c1c(O)c3c(c(O)c1C2=O)C[C@@](O)(C(=O)CO)C[C@@H]3O[C@H]1C[C@H](N)[C@H](O)[C@H](C)O1` [DOXORUBICIN HYDROCHLORIDE], the IC50 in the assay on KB [1] came out at 570 nM; in the assay on HL-60 [2], 76 nM; with HT-29 [3], 559 nM.

As to `Cc1cc(=O)cc2c3c1[C@@H]1O[C@H]4C5OC(=O)C(CC2)([C@@H]4C)[C@H]3[C@@]51O`, the IC50 in the assay on KB [1] came out at 964 nM; with HL-60 [2], 464 nM; in the assay on HT-29 [3] it was 817 nM; with A549 [4], 1330 nM.

In general, inhibition refers to the percentage by which the read-out fell short of the control. As for `C[C@@H]1C[C@@H]2OC(=O)C13CC[C@]14C[C@H](C=C(CO)[C@H]5C[C@H]2[C@H]3[C@@H]51)OC4=O`, the inhibition at 10 µM in the assay on HT-29 [5], in the assay on KB [6], with HL-60 [7] and in the assay with A549 [8] was below 50% throughout.

With `Cc1c(O)cc2c3c1[C@@H]1O[C@H]4C5OC(=O)C(CC2)([C@@H]4C)[C@H]3[C@@H]51`, the inhibition at 10 µM in the assay with HT-29 [5], with KB [6], in the assay on HL-60 [7] and in the assay on A549 [8] was below 50% throughout.

Turning to `COC(=O)c1cc(C)c2c3c1C(=O)CC14C(=O)O[C@@H](C[C@H]1C)[C@@H](C2)[C@@]34O`, the inhibition at 10 µM in the assay on HT-29 [5], in the assay on KB [6], in the assay with HL-60 [7] and in the assay with A549 [8] was below 50% throughout.

Consider `CC1=CCC[C@@]2(CO)CCC34C(=O)O[C@@H](C[C@H]3C)[C@H]3C[C@H]1[C@@H]2[C@H]34`, for which the inhibition at 10 µM with HT-29 [5], in the assay with KB [6], in the assay with HL-60 [7] and with A549 [8] was below 50% throughout.

Take `Cc1ccc2c3c1C[C@@H]1[C@@H]4C[C@@H](C)C(CC2=O)(C(=O)O4)[C@]31O`: the inhibition at 10 µM with HT-29 [5], in the assay with KB [6], with HL-60 [7] and in the assay with A549 [8] was below 50% in each case.

For the compound `Cc1c(O)cc2c3c1C[C@@H]1[C@@H]4C[C@@H](C)C(CC2)(C(=O)O4)[C@H]31`, the inhibition at 10 µM in the assay with HT-29 [5], in the assay with KB [6], in the assay with HL-60 [7] and in the assay on A549 [8] was below 50% each time.

On to `Cc1cc(=O)cc2c3c1C[C@@H]1[C@@H]4C[C@@H](C)C(C=C2)(C(=O)O4)[C@]31O`, for which the inhibition at 10 µM with HT-29 [5], in the assay on KB [6], with HL-60 [7] and in the assay on A549 [8] was below 50% each time.

Take `C=C1[C@H](O)CC[C@@]2(CO)CCC34C(=O)O[C@@H](C[C@H]3C)[C@H]3C[C@H]1[C@@H]2[C@H]34`: the inhibition at 10 µM in the assay on HT-29 [5], in the assay with KB [6], in the assay on HL-60 [7] and with A549 [8] was below 50% in each case.

As to `CC1=C[C@H]2C[C@]3(CCC45C(=O)O[C@@H](C[C@H]4C)[C@H]4C[C@H]1[C@@H]3[C@H]45)CO2`, the inhibition at 10 µM in the assay on HT-29 [5], with KB [6], in the assay on HL-60 [7] and in the assay with A549 [8] was below 50% each time.

On to `Cc1cc(=O)cc2c3c1C[C@@H]1[C@@H]4C[C@@H](C)C(CC2)(C(=O)O4)[C@]31O`, for which the IC50 in the assay on KB [1] turned out to be 2650 nM; in the assay on HL-60 [2] it was 1240 nM; in the assay on HT-29 [3], 3220 nM; in the assay with A549 [4], 6090 nM.

With `C[C@@H]1C[C@@H]2OC(=O)C13CC[C@@]14C[C@@H](OC1=O)[C@H](O)[C@](C)(O)C1=C4[C@@H]3[C@@H]2C1`, the inhibition at 10 µM with HT-29 [5], in the assay with KB [6], in the assay on HL-60 [7] and with A549 [8] was below 50% in each case.

The record behind these values is ChEMBL document CHEMBL4130576, “Cephanolides A-J, Cephalotane-Type Diterpenoids from Cephalotaxus sinensis” (J Nat Prod, 2017).
